Consider two molecules from ChEMBL document CHEMBL5653615 (J Biol Chem, 2013).

Molecules are shown by their SMILES.

Test [1] concerns the target T1, Protein kinase C epsilon type (Homo sapiens) (UniProt Q02156).
T1 sequence (whole entry): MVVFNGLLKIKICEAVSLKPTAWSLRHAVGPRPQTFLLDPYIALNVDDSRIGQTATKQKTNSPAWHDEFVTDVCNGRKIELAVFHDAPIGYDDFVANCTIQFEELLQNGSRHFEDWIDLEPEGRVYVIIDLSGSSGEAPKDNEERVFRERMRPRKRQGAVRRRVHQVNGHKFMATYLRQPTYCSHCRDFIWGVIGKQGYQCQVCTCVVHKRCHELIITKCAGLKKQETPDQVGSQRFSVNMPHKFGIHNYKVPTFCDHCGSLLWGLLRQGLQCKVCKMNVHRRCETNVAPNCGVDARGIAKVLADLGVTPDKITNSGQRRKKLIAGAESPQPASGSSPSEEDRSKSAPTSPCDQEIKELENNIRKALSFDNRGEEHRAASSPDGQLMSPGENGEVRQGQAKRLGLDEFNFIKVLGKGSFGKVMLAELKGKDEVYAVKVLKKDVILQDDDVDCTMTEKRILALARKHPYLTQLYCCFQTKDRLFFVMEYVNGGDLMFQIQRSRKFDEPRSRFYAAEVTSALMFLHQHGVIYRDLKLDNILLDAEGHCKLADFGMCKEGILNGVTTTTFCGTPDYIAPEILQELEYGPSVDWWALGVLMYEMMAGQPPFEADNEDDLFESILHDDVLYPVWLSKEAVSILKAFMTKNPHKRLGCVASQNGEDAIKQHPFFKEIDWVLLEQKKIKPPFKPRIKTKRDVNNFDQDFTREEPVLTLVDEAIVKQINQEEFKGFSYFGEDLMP
Description: Inhibition of human PKCepsilon at 18.6 nM by HotSpot assay relative to control.

The target in test [2] is Maternal embryonic leucine zipper kinase (Homo sapiens) (UniProt Q14680). The experiment in a line: Inhibition of human MELK at 18.6 nM by HotSpot assay relative to control.
Test [3] deals with Proto-oncogene tyrosine-protein kinase ROS (Homo sapiens) (UniProt P08922). The experiment in a line: Inhibition of human ROS1 at 18.6 nM by HotSpot assay relative to control.
The target in test [4] is Mitogen-activated protein kinase 9 (Homo sapiens) (UniProt P45984). Description: Inhibition of human JNK2 at 18.6 nM by HotSpot assay relative to control.
For test [5], the target named is T2, Tyrosine-protein kinase TXK (Homo sapiens) (UniProt P42681).
T2 sequence (whole entry): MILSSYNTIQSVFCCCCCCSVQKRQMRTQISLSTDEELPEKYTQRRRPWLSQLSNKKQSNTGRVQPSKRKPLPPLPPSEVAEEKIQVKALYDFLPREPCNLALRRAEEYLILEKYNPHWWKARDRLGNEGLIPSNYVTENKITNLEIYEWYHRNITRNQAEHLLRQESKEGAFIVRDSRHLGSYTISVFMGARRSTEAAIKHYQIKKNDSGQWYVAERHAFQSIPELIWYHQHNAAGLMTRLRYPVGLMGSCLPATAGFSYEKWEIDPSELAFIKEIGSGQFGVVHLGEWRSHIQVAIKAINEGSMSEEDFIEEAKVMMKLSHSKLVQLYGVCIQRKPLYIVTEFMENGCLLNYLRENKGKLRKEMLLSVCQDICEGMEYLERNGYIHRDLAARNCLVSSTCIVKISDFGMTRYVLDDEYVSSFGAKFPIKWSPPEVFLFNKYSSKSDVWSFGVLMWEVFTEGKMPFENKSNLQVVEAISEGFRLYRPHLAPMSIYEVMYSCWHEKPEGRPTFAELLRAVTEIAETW
The experiment in a line: Inhibition of human TXK at 18.6 nM by HotSpot assay relative to control.

Test [6] concerns the target Activin receptor type-1-like (Homo sapiens) (UniProt P37023). Description: Inhibition of human ALK1 at 18.6 nM by HotSpot assay relative to control.
Test [7] concerns the target Mitogen-activated protein kinase 10 (Homo sapiens) (UniProt P53779). The experiment in a line: Inhibition of human JNK3 at 1.82 nM by HotSpot assay relative to control.
Test [8] concerns the target Ribosomal protein S6 kinase alpha-2 (Homo sapiens) (UniProt Q15349). Description: Inhibition of human RSK3 at 1.82 nM by HotSpot assay relative to control.
Test [9] concerns the target T3, Ephrin type-B receptor 2 (Homo sapiens) (UniProt P29323).
T3 sequence (whole entry): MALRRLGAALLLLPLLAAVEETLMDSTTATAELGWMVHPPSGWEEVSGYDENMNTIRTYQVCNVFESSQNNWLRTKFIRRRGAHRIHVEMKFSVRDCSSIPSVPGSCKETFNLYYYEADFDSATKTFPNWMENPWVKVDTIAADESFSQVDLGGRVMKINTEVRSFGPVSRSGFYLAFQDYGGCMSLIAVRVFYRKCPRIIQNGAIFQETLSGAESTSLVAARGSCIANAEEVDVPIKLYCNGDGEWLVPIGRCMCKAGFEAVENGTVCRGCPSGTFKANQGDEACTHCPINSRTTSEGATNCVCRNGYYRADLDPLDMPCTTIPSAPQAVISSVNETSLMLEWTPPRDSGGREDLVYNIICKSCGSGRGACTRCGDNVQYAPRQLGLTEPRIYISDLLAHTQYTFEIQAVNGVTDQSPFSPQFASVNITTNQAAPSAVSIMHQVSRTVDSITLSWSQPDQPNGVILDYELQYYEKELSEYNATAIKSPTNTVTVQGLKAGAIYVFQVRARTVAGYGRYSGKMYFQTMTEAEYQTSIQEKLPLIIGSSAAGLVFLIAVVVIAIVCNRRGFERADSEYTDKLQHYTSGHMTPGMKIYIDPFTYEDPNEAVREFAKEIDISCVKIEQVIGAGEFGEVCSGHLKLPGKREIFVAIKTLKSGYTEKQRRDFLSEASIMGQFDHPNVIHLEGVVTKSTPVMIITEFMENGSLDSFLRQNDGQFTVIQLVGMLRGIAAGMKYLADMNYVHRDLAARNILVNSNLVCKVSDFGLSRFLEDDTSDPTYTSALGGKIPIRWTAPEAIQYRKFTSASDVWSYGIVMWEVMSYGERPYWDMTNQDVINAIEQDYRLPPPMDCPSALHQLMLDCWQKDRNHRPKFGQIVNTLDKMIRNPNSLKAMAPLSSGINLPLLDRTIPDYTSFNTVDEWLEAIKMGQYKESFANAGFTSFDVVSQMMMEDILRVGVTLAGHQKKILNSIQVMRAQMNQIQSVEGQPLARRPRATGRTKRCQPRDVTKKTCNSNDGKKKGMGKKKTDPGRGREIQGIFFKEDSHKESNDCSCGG
The experiment in a line: Inhibition of human EPHB2 at 1.82 nM by HotSpot assay relative to control.

Test [10] deals with Leucine-rich repeat serine/threonine-protein kinase 2 (Homo sapiens) (UniProt Q5S007). Description: Inhibition of human LRRK2 at 1.82 nM by HotSpot assay relative to control.

Chain of Proto-oncogene tyrosine-protein kinase ROS (Homo sapiens) (P08922 whole entry): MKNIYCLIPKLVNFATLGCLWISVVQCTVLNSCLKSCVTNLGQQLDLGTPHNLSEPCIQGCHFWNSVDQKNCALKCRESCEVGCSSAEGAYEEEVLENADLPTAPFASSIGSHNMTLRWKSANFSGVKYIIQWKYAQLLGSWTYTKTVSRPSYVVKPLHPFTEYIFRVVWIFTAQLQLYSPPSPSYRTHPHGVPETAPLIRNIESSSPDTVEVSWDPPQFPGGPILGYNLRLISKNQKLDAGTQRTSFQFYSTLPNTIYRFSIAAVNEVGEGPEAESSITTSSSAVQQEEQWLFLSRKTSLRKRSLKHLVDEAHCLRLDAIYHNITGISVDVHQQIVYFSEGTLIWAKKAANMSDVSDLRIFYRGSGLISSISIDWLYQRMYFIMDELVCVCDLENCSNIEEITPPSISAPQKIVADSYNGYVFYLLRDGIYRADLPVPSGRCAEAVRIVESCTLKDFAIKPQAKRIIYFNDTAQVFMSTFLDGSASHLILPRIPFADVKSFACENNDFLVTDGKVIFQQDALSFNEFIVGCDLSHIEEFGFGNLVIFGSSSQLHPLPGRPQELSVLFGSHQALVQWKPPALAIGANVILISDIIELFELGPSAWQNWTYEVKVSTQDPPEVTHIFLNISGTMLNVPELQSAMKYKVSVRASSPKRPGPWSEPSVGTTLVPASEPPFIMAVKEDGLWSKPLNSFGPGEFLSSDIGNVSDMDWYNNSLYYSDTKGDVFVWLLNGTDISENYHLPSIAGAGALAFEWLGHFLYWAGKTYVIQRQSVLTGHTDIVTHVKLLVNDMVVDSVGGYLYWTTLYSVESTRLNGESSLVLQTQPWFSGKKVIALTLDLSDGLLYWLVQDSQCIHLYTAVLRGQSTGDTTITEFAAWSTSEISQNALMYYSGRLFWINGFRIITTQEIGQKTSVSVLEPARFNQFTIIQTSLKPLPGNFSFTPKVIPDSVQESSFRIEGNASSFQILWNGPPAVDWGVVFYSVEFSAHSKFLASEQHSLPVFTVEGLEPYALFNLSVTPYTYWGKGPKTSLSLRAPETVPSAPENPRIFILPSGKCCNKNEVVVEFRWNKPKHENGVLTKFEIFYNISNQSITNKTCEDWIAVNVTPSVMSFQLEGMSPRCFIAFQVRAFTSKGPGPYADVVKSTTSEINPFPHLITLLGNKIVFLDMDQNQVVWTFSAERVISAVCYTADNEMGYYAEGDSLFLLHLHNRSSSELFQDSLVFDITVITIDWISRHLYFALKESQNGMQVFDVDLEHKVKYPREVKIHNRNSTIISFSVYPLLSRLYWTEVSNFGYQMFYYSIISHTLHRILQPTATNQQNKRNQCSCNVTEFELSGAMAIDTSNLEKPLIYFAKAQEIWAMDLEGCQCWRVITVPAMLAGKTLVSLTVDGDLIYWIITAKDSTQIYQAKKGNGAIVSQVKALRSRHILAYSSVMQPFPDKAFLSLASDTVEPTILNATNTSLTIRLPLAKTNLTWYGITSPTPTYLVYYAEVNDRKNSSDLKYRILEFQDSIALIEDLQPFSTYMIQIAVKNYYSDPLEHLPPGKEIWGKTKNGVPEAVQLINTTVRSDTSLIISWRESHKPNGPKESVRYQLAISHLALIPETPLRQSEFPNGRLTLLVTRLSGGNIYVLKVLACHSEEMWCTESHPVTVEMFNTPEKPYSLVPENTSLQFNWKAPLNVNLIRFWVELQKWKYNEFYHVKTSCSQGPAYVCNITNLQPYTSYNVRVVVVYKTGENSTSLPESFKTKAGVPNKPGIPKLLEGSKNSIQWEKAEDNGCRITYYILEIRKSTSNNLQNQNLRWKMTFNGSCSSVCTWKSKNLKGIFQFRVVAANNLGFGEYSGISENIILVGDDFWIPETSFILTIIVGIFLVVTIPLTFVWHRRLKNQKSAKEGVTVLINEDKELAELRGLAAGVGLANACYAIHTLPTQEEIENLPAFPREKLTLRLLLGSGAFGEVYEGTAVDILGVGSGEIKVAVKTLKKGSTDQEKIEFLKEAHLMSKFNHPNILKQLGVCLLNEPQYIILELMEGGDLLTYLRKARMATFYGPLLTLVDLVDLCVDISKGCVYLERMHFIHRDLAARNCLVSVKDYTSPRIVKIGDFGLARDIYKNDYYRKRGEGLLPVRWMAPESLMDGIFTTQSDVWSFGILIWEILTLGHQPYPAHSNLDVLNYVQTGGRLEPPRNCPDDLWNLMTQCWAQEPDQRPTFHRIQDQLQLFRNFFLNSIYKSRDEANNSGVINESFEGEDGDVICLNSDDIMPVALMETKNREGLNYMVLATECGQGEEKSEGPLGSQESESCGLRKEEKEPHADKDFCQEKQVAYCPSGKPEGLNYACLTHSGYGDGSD
Chain of Mitogen-activated protein kinase 10 (Homo sapiens) (P53779 whole entry): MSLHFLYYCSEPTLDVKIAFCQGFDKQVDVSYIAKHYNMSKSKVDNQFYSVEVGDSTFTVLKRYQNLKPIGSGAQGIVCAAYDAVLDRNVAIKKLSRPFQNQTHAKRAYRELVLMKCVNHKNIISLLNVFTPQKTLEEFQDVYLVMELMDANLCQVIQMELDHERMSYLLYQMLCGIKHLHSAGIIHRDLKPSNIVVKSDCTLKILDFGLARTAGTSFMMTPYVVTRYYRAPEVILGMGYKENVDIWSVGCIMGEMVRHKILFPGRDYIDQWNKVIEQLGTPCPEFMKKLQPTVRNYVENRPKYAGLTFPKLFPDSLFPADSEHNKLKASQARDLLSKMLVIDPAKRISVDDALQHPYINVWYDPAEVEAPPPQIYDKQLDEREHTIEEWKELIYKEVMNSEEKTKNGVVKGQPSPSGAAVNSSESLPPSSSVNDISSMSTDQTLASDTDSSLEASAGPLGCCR
Chain of Mitogen-activated protein kinase 9 (Homo sapiens) (P45984 whole entry, looked up): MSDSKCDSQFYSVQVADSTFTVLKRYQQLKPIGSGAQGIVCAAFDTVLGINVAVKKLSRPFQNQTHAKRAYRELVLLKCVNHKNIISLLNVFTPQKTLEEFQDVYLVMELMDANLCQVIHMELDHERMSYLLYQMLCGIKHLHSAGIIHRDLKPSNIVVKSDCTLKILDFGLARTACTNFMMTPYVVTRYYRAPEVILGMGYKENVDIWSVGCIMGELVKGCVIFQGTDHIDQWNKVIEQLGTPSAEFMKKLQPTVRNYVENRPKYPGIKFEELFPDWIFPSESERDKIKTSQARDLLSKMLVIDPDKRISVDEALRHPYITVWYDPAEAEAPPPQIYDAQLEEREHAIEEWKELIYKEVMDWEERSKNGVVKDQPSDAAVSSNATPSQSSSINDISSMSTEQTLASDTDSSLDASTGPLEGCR
Chain of Maternal embryonic leucine zipper kinase (Homo sapiens) (Q14680 whole entry, looked up): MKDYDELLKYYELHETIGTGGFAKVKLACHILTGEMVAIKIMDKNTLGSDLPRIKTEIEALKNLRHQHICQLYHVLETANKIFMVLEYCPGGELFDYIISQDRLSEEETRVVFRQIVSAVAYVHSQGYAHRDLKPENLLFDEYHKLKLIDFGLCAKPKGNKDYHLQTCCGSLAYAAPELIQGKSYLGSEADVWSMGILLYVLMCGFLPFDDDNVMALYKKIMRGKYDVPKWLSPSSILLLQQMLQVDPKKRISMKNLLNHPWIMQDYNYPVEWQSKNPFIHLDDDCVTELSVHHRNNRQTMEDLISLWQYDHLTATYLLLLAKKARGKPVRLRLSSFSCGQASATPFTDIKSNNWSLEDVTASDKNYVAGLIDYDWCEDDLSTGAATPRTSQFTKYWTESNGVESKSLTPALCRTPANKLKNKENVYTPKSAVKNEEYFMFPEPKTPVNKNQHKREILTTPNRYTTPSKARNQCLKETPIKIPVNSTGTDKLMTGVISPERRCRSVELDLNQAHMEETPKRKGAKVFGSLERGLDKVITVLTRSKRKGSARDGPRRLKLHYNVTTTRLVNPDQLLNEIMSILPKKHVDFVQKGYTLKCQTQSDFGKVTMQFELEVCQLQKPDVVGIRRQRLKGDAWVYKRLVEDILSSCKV
Chain of Activin receptor type-1-like (Homo sapiens) (P37023 whole entry): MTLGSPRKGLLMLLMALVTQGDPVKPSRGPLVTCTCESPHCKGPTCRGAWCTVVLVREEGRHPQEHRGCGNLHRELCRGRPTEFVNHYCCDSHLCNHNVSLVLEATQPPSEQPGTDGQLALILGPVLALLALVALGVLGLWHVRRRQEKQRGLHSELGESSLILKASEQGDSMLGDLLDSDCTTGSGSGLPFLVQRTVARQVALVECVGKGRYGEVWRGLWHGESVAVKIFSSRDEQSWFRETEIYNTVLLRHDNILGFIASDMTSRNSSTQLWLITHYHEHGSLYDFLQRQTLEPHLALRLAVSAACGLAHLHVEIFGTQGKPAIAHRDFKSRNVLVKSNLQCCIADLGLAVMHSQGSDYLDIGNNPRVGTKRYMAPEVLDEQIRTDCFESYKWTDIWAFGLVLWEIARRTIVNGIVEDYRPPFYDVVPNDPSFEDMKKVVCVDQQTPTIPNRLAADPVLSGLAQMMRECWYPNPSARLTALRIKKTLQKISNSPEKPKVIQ

By inhibition is commonly meant the relative decrease from the control value, in per cent. In the case of `C[C@]1(O)C[C@@H](c2nc(-c3ccc4ccc(-c5ccccc5)nc4c3)c3c(N)nccn32)C1`, the inhibition in test [1] was -9.61%; in test [2], -2.08%; in test [3], -1.08%; in test [4], -2.37%; in test [5], -8.77%; in [6] it was 1.51%.
As for `C[C@@]1(C(=O)Nc2ccc(F)nc2)CCCN1c1nc(Nc2cc(C3CC3)n[nH]2)c2cccn2n1`, the inhibition in [7] is -8.84%; in test [8] it was -2.19%; in test [9] it was -7.51%; in test [10], -6.63%.
